The record followed here is patent publication US7300946B2, “N-(substituted arylmethyl)-4-(disubstituted methyl) piperidines and pyridines” (Bayer CropScience AG, priority 2002, dated 2007).

Each structure is given as a SMILES string.

This test deals with tobacco budworm (Heliothis virescens [Fabricius]). In words: surface-treated diet test against the tobacco budworm. In kind it is in vivo. Particulars: tobacco budworm second instar larvae, 0.25 millimoles of candidate insecticide on the surface of the diet, five-day exposure; for Percent Mortality: compared to total number of insects infested; for Percent Growth Inhibition: inhibition of insect weight relative to untreated controls. Put shortly:
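Wheat germ artificial diet surface-treated with 40 µL of 50 mM DMSO stock diluted 1:7 in 1:1 water/acetone (0.25 millimolar on diet), or sub-multiples for rate tests. One second-instar larva per well, 25° C, 60% RH, 5 days; percent weight inhibition vs DMSO controls and percent mortality.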

With `O=C(Nc1ccc(OC(F)F)cc1)OC(c1ccc(C(F)(F)F)cc1)C1CCN(Cc2ccc(Oc3ccccn3)cc2)CC1` (centres unmarked) [Compound 701], the “Percent Mortality” value was determined as 100% and the “Percent Growth Inhibition” value amounted to 100%.

Consider `CSc1ccc(NC(=O)OC(c2ccc(C(F)(F)F)cc2)C2CCN(Cc3ccc(Oc4ccccn4)cc3)CC2)cc1` (centres unmarked) [Compound 702], for which the “Percent Mortality” value was 100% and the “Percent Growth Inhibition” value was 100%.

Turning to `O=C(Nc1ccc(SC(F)(F)F)cc1)OC(c1ccc(C(F)(F)F)cc1)C1CCN(Cc2ccc(Oc3ccccn3)cc2)CC1` (centres unmarked) [Compound 703], the “Percent Mortality” value is 100% and the “Percent Growth Inhibition” value is 100%.

Regarding `N#Cc1ccc(NC(=O)OC(c2ccc(C(F)(F)F)cc2)C2CCN(Cc3ccc(Oc4ccccn4)cc3)CC2)cc1` (centres unmarked) [Compound 704], the “Percent Mortality” value is on record as 100% and the “Percent Growth Inhibition” value turned out to be 100%.

As for `CC(=O)c1ccc(NC(=O)OC(c2ccc(C(F)(F)F)cc2)C2CCN(Cc3ccc(Oc4ccccn4)cc3)CC2)cc1` (centres unmarked) [Compound 705], the “Percent Mortality” value worked out at 17% and the “Percent Growth Inhibition” value turned out to be 100%.

Take `O=C(Nc1ccc(Cl)cc1)OC(c1ccc(OC(F)(F)F)cc1)C1CCN(Cc2ccc(Oc3cccc[n+]3[O-])cc2)CC1` (centres unmarked) [Compound 706]: the “Percent Mortality” value was determined as 100% and the “Percent Growth Inhibition” value is recorded as 100%.

Regarding `N#Cc1cccnc1Oc1ccc(CN2CCC(C(OC(=O)Nc3ccc(Cl)cc3)c3ccc(OC(F)(F)F)cc3)CC2)cc1` (centres unmarked) [Compound 707], the “Percent Mortality” value was found to be 100% and the “Percent Growth Inhibition” value is reported as 100%.

For the compound `N#Cc1ccc(Oc2ccc(CN3CCC(C(OC(=O)Nc4ccc(Cl)cc4)c4ccc(OC(F)(F)F)cc4)CC3)cc2)nc1` (centres unmarked) [Compound 708], the “Percent Mortality” value came to 100% and the “Percent Growth Inhibition” value is reported as 100%.

On to `O=C(Nc1cc(F)cc(F)c1)OC(c1ccc(OC(F)(F)F)cc1)C1CCN(Cc2ccc(Oc3cccc[n+]3[O-])cc2)CC1` (centres unmarked) [Compound 709], for which the “Percent Mortality” value worked out at 100% and the “Percent Growth Inhibition” value is recorded as 100%.

For `N#Cc1cccnc1Oc1ccc(CN2CCC(C(OC(=O)Nc3cc(F)cc(F)c3)c3ccc(OC(F)(F)F)cc3)CC2)cc1` (centres unmarked) [Compound 710], the “Percent Mortality” value is on record as 100% and the “Percent Growth Inhibition” value amounted to 100%.

Take `N#Cc1ccc(Oc2ccc(CN3CCC(C(OC(=O)Nc4cc(F)cc(F)c4)c4ccc(OC(F)(F)F)cc4)CC3)cc2)nc1` (centres unmarked) [Compound 711]: the “Percent Mortality” value is listed as 100% and the “Percent Growth Inhibition” value is 100%.

For `O=C(Nc1ccc(Cl)cc1)OC(c1ccc(Cl)cc1)C1CCN(Cc2ccc(Oc3ncccn3)cc2)CC1` (centres unmarked) [Compound 712], the “Percent Mortality” value was found to be 100% and the “Percent Growth Inhibition” value was 100%.

`O=C(Nc1cccc(F)c1)OC(c1ccc(Cl)cc1)C1CCN(Cc2ccc(Oc3ncccn3)cc2)CC1` (centres unmarked) [Compound 713]: the “Percent Mortality” value is recorded as 100% and the “Percent Growth Inhibition” value is 100%.

As for `O=C(Nc1cc(F)cc(F)c1)OC(c1ccc(Cl)cc1)C1CCN(Cc2ccc(Oc3ncccn3)cc2)CC1` (centres unmarked) [Compound 714], the “Percent Mortality” value is reported as 100% and the “Percent Growth Inhibition” value was 100%.

For `O=C(Nc1ccc(Cl)cc1)OC(c1ccc(F)cc1)C1CCN(Cc2ccc(Oc3ncccn3)cc2)CC1` (centres unmarked) [Compound 715], the “Percent Mortality” value amounted to 100% and the “Percent Growth Inhibition” value was determined as 100%.

For the compound `O=C(Nc1cccc(F)c1)OC(c1ccc(F)cc1)C1CCN(Cc2ccc(Oc3ncccn3)cc2)CC1` (centres unmarked) [Compound 716], the “Percent Mortality” value was determined as 100% and the “Percent Growth Inhibition” value was 100%.

Take `O=C(Nc1cc(F)cc(F)c1)OC(c1ccc(F)cc1)C1CCN(Cc2ccc(Oc3ncccn3)cc2)CC1` (centres unmarked) [Compound 717]: the “Percent Mortality” value amounted to 100% and the “Percent Growth Inhibition” value is 100%.

Take `O=C(Nc1ccc(Cl)cc1)OC(c1ccc(Cl)cc1Cl)C1CCN(Cc2ccc(Oc3ncccn3)cc2)CC1` (centres unmarked) [Compound 718]: the “Percent Mortality” value is given as 100% and the “Percent Growth Inhibition” value was 100%.

Turning to `O=C(Nc1cccc(F)c1)OC(c1ccc(Cl)cc1Cl)C1CCN(Cc2ccc(Oc3ncccn3)cc2)CC1` (centres unmarked) [Compound 719], the “Percent Mortality” value amounted to 100% and the “Percent Growth Inhibition” value is given as 100%.

Regarding `O=C(Nc1cc(F)cc(F)c1)OC(c1ccc(Cl)cc1Cl)C1CCN(Cc2ccc(Oc3ncccn3)cc2)CC1` (centres unmarked) [Compound 720], the “Percent Mortality” value is recorded as 100% and the “Percent Growth Inhibition” value was found to be 100%.

Turning to `O=C(Nc1ccc(Cl)cc1)OC(c1ccc(Cl)c(Cl)c1)C1CCN(Cc2ccc(Oc3ncccn3)cc2)CC1` (centres unmarked) [Compound 721], the “Percent Mortality” value came out at 100% and the “Percent Growth Inhibition” value is recorded as 100%.

As for `O=C(Nc1ccc(F)cc1)OC(c1ccc(Cl)c(Cl)c1)C1CCN(Cc2ccc(Oc3ncccn3)cc2)CC1` (centres unmarked) [Compound 722], the “Percent Mortality” value turned out to be 83% and the “Percent Growth Inhibition” value is 100%.

For the compound `O=C(Nc1cc(F)cc(F)c1)OC(c1ccc(Cl)c(Cl)c1)C1CCN(Cc2ccc(Oc3ncccn3)cc2)CC1` (centres unmarked) [Compound 723], the “Percent Mortality” value is 100% and the “Percent Growth Inhibition” value came out at 100%.

Consider `O=C(Nc1cccc(C(F)(F)F)c1)OC(c1ccc(Cl)c(Cl)c1)C1CCN(Cc2ccc(Oc3ncccn3)cc2)CC1` (centres unmarked) [Compound 724], for which the “Percent Mortality” value worked out at 100% and the “Percent Growth Inhibition” value amounted to 100%.

Regarding `O=C(Nc1ccc(C(F)(F)F)cc1)OC(c1ccc(Cl)c(Cl)c1)C1CCN(Cc2ccc(Oc3ncccn3)cc2)CC1` (centres unmarked) [Compound 725], the “Percent Mortality” value came to 100% and the “Percent Growth Inhibition” value turned out to be 100%.

`O=C(Nc1ccc(Cl)cc1)OC(c1cc(Cl)cc(Cl)c1)C1CCN(Cc2ccc(Oc3ncccn3)cc2)CC1` (centres unmarked) [Compound 726]: the “Percent Mortality” value worked out at 100% and the “Percent Growth Inhibition” value worked out at 100%.

Take `O=C(Nc1cccc(F)c1)OC(c1cc(Cl)cc(Cl)c1)C1CCN(Cc2ccc(Oc3ncccn3)cc2)CC1` (centres unmarked) [Compound 727]: the “Percent Mortality” value was determined as 100% and the “Percent Growth Inhibition” value worked out at 100%.

With `O=C(Nc1cc(F)cc(F)c1)OC(c1cc(Cl)cc(Cl)c1)C1CCN(Cc2ccc(Oc3ncccn3)cc2)CC1` (centres unmarked) [Compound 728], the “Percent Mortality” value is 100% and the “Percent Growth Inhibition” value is on record as 100%.

As for `O=C(Nc1ccc(Cl)cc1)OC(c1ccc(C(F)(F)F)cc1)C1CCN(Cc2ccc(Oc3ncccn3)cc2)CC1` (centres unmarked) [Compound 729], the “Percent Mortality” value is reported as 100% and the “Percent Growth Inhibition” value is 100%.

On to `O=C(Nc1ccc(F)cc1F)OC(c1ccc(C(F)(F)F)cc1)C1CCN(Cc2ccc(Oc3ncccn3)cc2)CC1` (centres unmarked) [Compound 730], for which the “Percent Mortality” value turned out to be 100% and the “Percent Growth Inhibition” value worked out at 100%.

As to `O=C(Nc1cc(F)cc(F)c1)OC(c1ccc(C(F)(F)F)cc1)C1CCN(Cc2ccc(Oc3ncccn3)cc2)CC1` (centres unmarked) [Compound 731], the “Percent Mortality” value worked out at 100% and the “Percent Growth Inhibition” value worked out at 100%.

For `O=C(Nc1ccc(F)c(F)c1)OC(c1ccc(C(F)(F)F)cc1)C1CCN(Cc2ccc(Oc3ncccn3)cc2)CC1` (centres unmarked) [Compound 732], the “Percent Mortality” value was found to be 100% and the “Percent Growth Inhibition” value was 100%.

On to `O=C(Nc1ccc(Cl)cc1)OC(c1ccc(OC(F)(F)F)cc1)C1CCN(Cc2ccc(Oc3ncccn3)cc2)CC1` (centres unmarked) [Compound 733], for which the “Percent Mortality” value came to 100% and the “Percent Growth Inhibition” value is reported as 100%.

In the case of `O=C(Nc1cccc(F)c1)OC(c1ccc(OC(F)(F)F)cc1)C1CCN(Cc2ccc(Oc3ncccn3)cc2)CC1` (centres unmarked) [Compound 734], the “Percent Mortality” value was determined as 100% and the “Percent Growth Inhibition” value is 100%.

With `O=C(Nc1cc(F)cc(F)c1)OC(c1ccc(OC(F)(F)F)cc1)C1CCN(Cc2ccc(Oc3ncccn3)cc2)CC1` (centres unmarked) [Compound 735], the “Percent Mortality” value is listed as 100% and the “Percent Growth Inhibition” value is 100%.

On to `O=C(Nc1cc(F)cc(F)c1)OC(c1ccc(C(F)(F)F)cc1)C1CCN(Cc2ccc(Oc3cccnn3)cc2)CC1` (centres unmarked) [Compound 736], for which the “Percent Mortality” value is 100% and the “Percent Growth Inhibition” value was 100%.

Regarding `O=C(Nc1ccc(Cl)cc1)OC(c1ccc(C(F)(F)F)cc1)C1CCN(Cc2ccc(Oc3ccc(Cl)nn3)cc2)CC1` (centres unmarked) [Compound 737], the “Percent Mortality” value is recorded as 100% and the “Percent Growth Inhibition” value is recorded as 100%.

As for `O=C(Nc1cc(F)cc(F)c1)OC(c1ccc(C(F)(F)F)cc1)C1CCN(Cc2ccc(Oc3ccc(Cl)nn3)cc2)CC1` (centres unmarked) [Compound 738], the “Percent Mortality” value turned out to be 100% and the “Percent Growth Inhibition” value was determined as 100%.

On to `O=C(Nc1cc(F)cc(F)c1)OC(c1ccc(C(F)(F)F)cc1)C1CCN(Cc2ccc(Oc3ncncn3)cc2)CC1` (centres unmarked) [Compound 739], for which the “Percent Mortality” value is reported as 0% and the “Percent Growth Inhibition” value was 100%.

Consider `COc1nc(OC)nc(Oc2ccc(CN3CCC(C(OC(=O)Nc4cc(F)cc(F)c4)c4ccc(C(F)(F)F)cc4)CC3)cc2)n1` (centres unmarked) [Compound 740], for which the “Percent Mortality” value is reported as 100% and the “Percent Growth Inhibition” value amounted to 100%.

With `CCCOc1ccc(C[N+]2([O-])CCC(C(OC(=O)Nc3cc(F)cc(F)c3)c3ccc(C(F)(F)F)cc3)CC2)cc1` (centres unmarked) [Compound 741], the “Percent Mortality” value turned out to be 100% and the “Percent Growth Inhibition” value is given as 100%.

Take `CCON=Cc1ccc(C[N+]2([O-])CCC(C(OC(=O)Nc3cccc(F)c3)c3ccc(C(F)(F)F)cc3)CC2)cc1` (centres unmarked) [Compound 742]: the “Percent Mortality” value turned out to be 100% and the “Percent Growth Inhibition” value is listed as 100%.

On to `CCON=Cc1ccc(C[N+]2([O-])CCC(C(OC(=O)Nc3cc(F)cc(F)c3)c3ccc(C(F)(F)F)cc3)CC2)cc1` (centres unmarked) [Compound 743], for which the “Percent Mortality” value was determined as 100% and the “Percent Growth Inhibition” value is given as 100%.
